Several values for one entry are separate records, joined by “and”; a condition that tells them apart may be missing. Equal values may be shown once.
Tested on: human breast cancer line MDA-MB-231
Test: Tumor growth inhibition in nude mice xenograft model, MDA-MB-231
Experimental: • 1. […] Drug administration dose were set as: 10 mg/kg, 15 mg/kg, and 20 mk/kg, drug administration volume was 0.2 mL/20 g. • 2. […] MDA [Peptide (P) 0.54 mg/mL (0.001M), Example 10], a colorless and clear liquid, was prepared by the commission, can be directly used after the repackaging in a sterile condition, stored at 4° C. […] Certificate NO. […] SYSK (BeiJing) 2004-0001. Experiment Methods:
The mice were divided into groups and administrated drug after 11 days.
The mice were divided into eight groups, each group had 6-8 mice. The groups contained Negative control. […] After grouping, all mice were administrated with drug by intraperitoneal injection once a day depends on their body weight.
Other groups were administered with drugs for 24 times successively. The experiment was completed 24 h after the last administration.
The mice were sacrificed, and tumors were isolated and their weight was measured, and the inhibition rate of tumor growth by drugs were calculated. […] Calculation methods and formula were omitted.

[1] = 30 mg/kg × 12, i.p. once a day, then withdrawn, larger starting tumors

CC(=O)O[C@H]1C(=O)[C@@]2(C)[C@H]([C@H](OC(=O)c3ccccc3)[C@]3(O)C[C@H](OC(=O)[C@H](OC(=O)CCC(=O)NCCCCC(NC(=O)CC[C@H](NC(=O)C(C)NC(=O)/C=C/c4ccc(Cl)cc4)C(N)=O)C(N)=O)[C@@H](NC(=O)c4ccccc4)c4ccccc4)C(C)=C1C3(C)C)[C@]1(OC(C)=O)CO[C@@H]1C[C@@H]2O (some centres unmarked) [MTC-220]
Body weight Beginning (10 mg/kg × 24, i.p. once a day): 17.4 ± 1.47 g | Body weight End (10 mg/kg × 24, i.p. once a day): 20.6 ± 1.64 g | RTV (10 mg/kg × 24, i.p. once a day): 12.62 ± 5.924 | T/C (10 mg/kg × 24, i.p. once a day): 70.0% | TGI (10 mg/kg × 24, i.p. once a day): 37.3% | Tumor volume Beginning (10 mg/kg × 24, i.p. once a day): 135 ± 70.6 mm^3 | Tumor volume End (10 mg/kg × 24, i.p. once a day): 1655 ± 929.4 mm^3 | Tumor weight (10 mg/kg × 24, i.p. once a day): 1.78 ± 1.016 g | Body weight increase compared to the beginning of the grouping (15 mg/kg × 24, end of the experiment): 2.7 g | Body weight Beginning (15 mg/kg × 24, i.p. once a day): 17.9 ± 0.88 g | Body weight End (15 mg/kg × 24, i.p. once a day): 20.6 ± 0.91 g | RTV (15 mg/kg × 24, i.p. once a day): 7.12 ± 4.064 | T/C (15 mg/kg × 24, i.p. once a day): 39.5% and 37.5% and 39.49% | TGI (15 mg/kg × 24, i.p. once a day): 57.4% | Tumor volume Beginning (15 mg/kg × 24, i.p. once a day): 148 ± 80.5 mm^3 | Tumor volume End (15 mg/kg × 24, i.p. once a day): 967 ± 590.4 mm^3 | Tumor weight (15 mg/kg × 24, i.p. once a day): 1.21 ± 0.813 g | Body weight increase compared to the beginning of the grouping (20 mg/kg × 24, end of the experiment): 1.9 g | Body weight Beginning (20 mg/kg × 24, i.p. once a day): 17.0 ± 1.11 g | Body weight End (20 mg/kg × 24, i.p. once a day): 18.9 ± 1.58 g | RTV (20 mg/kg × 24, i.p. once a day): 4.58 ± 2.456 | T/C (20 mg/kg × 24, i.p. once a day): 25.40% | TGI (20 mg/kg × 24, i.p. once a day): 72.2% | Tumor volume Beginning (20 mg/kg × 24, i.p. once a day): 133 ± 57.6 mm^3 | Tumor volume End (20 mg/kg × 24, i.p. once a day): 642 ± 482.3 mm^3 | Tumor weight (20 mg/kg × 24, i.p. once a day): 0.79 ± 0.654 g | Body weight increase compared to the beginning of the grouping (30 mg/kg × 12, end of the experiment): 2.6 g | Body weight Beginning [1]: 17.5 ± 1.09 g | Body weight End [1]: 20.1 ± 0.98 g | RTV [1]: 1.11 ± 1.366 | T/C [1]: 6.16% | TGI [1]: >87.0% | Tumor volume Beginning [1]: 340 ± 58.4 mm^3 | Tumor volume End [1]: 391 ± 480.5 mm^3 | Tumor weight [1]: 0.37 ± 0.413 g
